Key:
[1] = system: Escherichia coli (ATCC 8739); assay: Alamar Blue reduction biocidal assay, 5 minute exposure; type: cell-based; details: for IC50: Escherichia coli, ATCC8739, ATCC 8739, 5 min, read-out: 50% Inhibitory Concentration (IC50), E. coli, 50% inhibition of Alamar Blue reduction
Description: (§1) In this Example, the antimicrobial efficacy (in terms of IC50 data) of several different formulations against Staphylococcus aureus, Staphylococcus epidermidis, and Escherichia coli was evaluated. The formulations tested comprised a formulation based upon the present invention as well as several other formulations comprised of various organic acids and/or surfactants, as well as surfactants alone. Microorganism Preparation: Lyophilized cultures of Escherichia coli (ATCC 8739), Staphylococcus aureus (ATCC 6538), and Staphylococcus epidermidis (ATCC 12,228) were obtained from the American Type Culture Collection (ATCC) (Rockville, Md.). All three cultures were reconstituted according to ATCC specifications. Aliquots (0.5 mL) of reconstituted 24 hour broth growth were frozen and held at −80° C. until needed. Working cultures were prepared weekly by streaking a loop of frozen culture onto tryptic soy agar plates (TSA) (Becton Dickinson Microbiology Systems, Cockeysville, Md.) and then incubating overnight at 37° C. After incubation, the cultures were held at 4° C. for not more than about 5 days. One day prior to testing, a fresh TSA plate was prepared with a sterile swab to achieve a lawn of growth and incubated at 37° C. for about 24 hours. […] Cell concentrations were determined in triplicate by taking optical density readings of a sample (200 microliters) with a ThermoMax microplate reader spectrophotometer (Molecular Devices) at 650 nm. From a standard curve the appropriate volume of the PBW containing the cells was determined to prepare 1.1×10^9 CFU/mL in the PBW. Exact cell numbers were confirmed by spread plating on TSA and incubating at 37° C. Assay Protocol: To all wells of a Microflour®2 96 well microtiter plate (8 Rows by 12 Columns) (Dynex Technologies, Chantilly, Va.) was added 25 microliters of filtered, sterilized water (Millipore Continental Water Systems, Bedford Mass.). […] After mixing, 25 microliters was transferred from each well in Row A to its corresponding well in Row B to produce a new 50 microliter mixture of sample formulation and water having one half the concentration of sample formulation as that of Row A. The Row B mixtures were aspirated 3 times to thoroughly mix the sample formulation and water combination. These serial dilutions continued down the Rows until reaching Row G (for a total of 6 dilutions from the original plates in Row A). After thorough mixing of Row G well contents, 25 microliters of each well in Row G (a total of 12) was discarded to produce a Row G having 12 columns each containing 25 microliters. […] After serial dilution, bacterial cells were introduced into the wells. […] In columns 4, 5, and 6 of each Row, 25 microliters (about 2.75×10^7 cells) of Staphylococcus epidermidis as prepared above was introduced and mixed. In columns 7, 8, and 9 of each Row, 25 microliters (about 2.75×10^7 cells) of Escherichia coli as prepared above was introduced and mixed. The sample formulations as prepared above were appropriately diluted (if necessary) prior to the introduction of the sample formulations into Row A. The dilutions were made such that, after the sample formulation was introduced into Row A, and after the cells were introduced into Row A (i.e., after reducing the initial concentration of the sample formulation by 50% two times), the initial concentrations were as follows: After the addition of the cells, incubation proceeded (5 minutes) at room temperature. After the incubation period, a 1.6 M phosphate buffer (50 microliters) was added to all wells to neutralize the biocide. Then, 3×Letheen broth (50 microliters) (Difco Laboratories, Detroit, Mich.) and Alamar Blue (25 microliters at room temperature) (AccuMed International, Westlake, Ohio) were added to each well. A positive control was also utilized in the experiment. The positive control consisted of adding sterile Milli-Q water to the wells in place of sample formulation. […]

[2] = system: Staphylococcus aureus (ATCC 6538); assay: as above; type: cell-based; details: for IC50: Staphylococcus aureus, ATCC6538, 5 min, read-out: 50% Inhibitory Concentration (IC50), S. aureus, 50% inhibition of Alamar Blue reduction; for IC50 / 50% Inhibitory Concentration (IC50), S. aureus: 5 minutes incubation at room temperature; for 50% Inhibitory Concentration (IC50), S. aureus: 50% inhibition of Alamar Blue reduction
Description: as §1

[3] = system: Staphylococcus epidermidis (ATCC 12,228); assay: as above; type: cell-based; details: for IC50: Staphylococcus epidermidis, ATCC12, 5 min, read-out: 50% Inhibitory Concentration (IC50), S. epidermidis, 50% inhibition of Alamar Blue reduction
Description: as §1

Human stratum corneum = details: tape biopsies soaked 30 minutes at room temperature; against purified water controls; tested in triplicate; Sulfate
Description: Skin mildness was evaluated by measuring the damage caused by the biocide on the outer portion of the stratum corneum, and specifically the removal of the lipid component of the stratum corneum.
Human stratum corneum was harvested from adult legs using D-Squame tape biopsies (Cuderm Corporation, Dallas Tex.). Each biopsy harvested consisted of about 7 to 8 pulls from multiple sites on a subject's lower leg. After harvesting, the tapes containing the biopsies were soaked in the test biocide (2 mL) in covered six well tissue cultured dishes for 30 minutes at room temperature. Each biocide formulation was tested in triplicate in adjacent wells.
After soaking the tape strips in the biocide, the tape strips were removed and washed for 3 minutes with cold tap water, and dried at room temperature. After drying, the tape strips containing the biopsies were completely immersed in fushin-toluidine blue dye (Polychrome Multiple Stain, PMS: Delasco, Council Bluff, Iowa.) The immersion continued for 3 minutes after which the tape strips were removed and washed for 3 minutes in cold tap water. After washing, the tape strips were allowed to dry completely at room temperature.
The color of the dried samples was measured by color reflectance using a Minolta CR 5000 (Minolta, Osaka, Japan) spectrophotometer. The color measurements recorded the luminance (L*) and chromaticity through Chroma C* described by the equation (a^*2+b^*2)^½. The color differentials between test materials and controls were calculated according to: [(ΔL*)^2+(ΔC*)^2]^1/2=ΔE*ab. The measurements were taken against controls which were purified water.

[4] = 5 minutes incubation at room temperature
[5] = 50% inhibition of Alamar Blue reduction, 5 minutes incubation at room temperature, listed as #4, sulfate

Structure (SMILES) | IC50 [1, 4] [µg/mL] | IC50 [2] [µg/mL] | IC50 [3, 4] [µg/mL] | ΔE*ab (color differential of dye-stained stratum corneum biopsies) (Human stratum corneum) | also measured
O=C(O)CC(O)C(=O)O (stereo not drawn) [Biocide #2, Malic Acid] | 6000 | 1300 | 240 | – | –
CCCCCCCCCCCCOS(=O)(=O)[O-].[Na+] [Formulation 6, Sodium Dodecyl Sulfate] | – | – | – | 3.36 | –
CCCCCCCCCCCCOS(=O)(=O)[O-].[Na+] [Biocide #4, sodium dodecyl sulfate] | ~79000 | – | < 1000 | – | inhibition in words, E. coli [1]: exhibited inhibition; 50% Inhibitory Concentration (IC50), E. coli [1, 5]: 79500 µg/mL; inhibition / biocidal activity in words, S. aureus [2]: exhibited inhibition; 50% Inhibitory Concentration (IC50), S. aureus ([2]; listed as #4, sulfate): 480 µg/mL; 50% Inhibitory Concentration (IC50), S. aureus ([2]; listed as sodium dodecyl sulfate, sulfate): less than 1 g/L; inhibition in words, S. epidermidis [3]: exhibited inhibition; 50% Inhibitory Concentration (IC50), S. epidermidis [3, 5]: 950 µg/mL
O=C(O)CC(O)(CC(=O)O)C(=O)O [Biocide #1, Citric Acid] | > 6300 | 2200 | 710 | – | –
CCCCCCCCCCCCOS(=O)(=O)[O-].[Na+] [Formulation 4, Sodium Dodecyl Sulfate] | – | – | – | 34.41 | –
CCCCCCCCCCCCOS(=O)(=O)[O-].[Na+] [Formulation 5, Sodium Dodecyl Sulfate] | – | – | – | 20.76 | –

Reference: US6610314B2, “Antimicrobial formulations” (Kimberly-Clark Worldwide, Inc., priority 2001, dated 2003)
